# What was measured:
# TNFα = TNFα (Homo sapiens (Human), UniProt P01375); test: TNFα binding assay (time-resolved FRET, biotinylated TNFα); details: 1 nM biotinylated TNFα, 80 nM probe, 16 hr incubation; read-out: TNF-HTRF-biotin
# Protocol: TNFα binding was measured in black 96-well plates using a time-resolved FRET assay using a previously described fluorescence acceptor TNFα probe (Xiao et al J. Med. Chem. 2020). Biotinylated TNFα was purchased from Acro Biosystems. Binding reactions were conducted in 20 mM Hepes (pH 7.5) 10 mM MgCl2 0.015% Tween-20 0.05 mg/ml BSA 2% DMSO with 1 nM TNFα 0.5 nM Streptavidin-Tb and 80 nM probe. Test compounds were resuspended in DMSO and 3-fold serial dilutions were made at 100× final concentrations. Fluorescence was measured using λex=340 nm, λem=490, 520 nm on an SpectraMax M5e plate reader (Molecular Devices) after 16 hr incubation time. Dose responses were conducted in duplicate and normalized to the response with DMSO (high) and 100 nM (R)-3-(1-((3-chloro-7-fluoro-6-(2-(2-hydroxypropan-2-yl)pyrimidin-5-yl)-2-methyl-1,5-naphthyridin-4-yl)amino)ethyl)-4-fluorobenzonitrile (low) on each plate. IC50 values were determined by fitting to 4-parameter curves in GraphPad Prism.
# folate receptor beta [1] = target: T1, folate receptor beta (Homo sapiens (Human), UniProt P14207); test: Folate receptor binding assay (fluorescence polarization); details: 2.5 nM folate receptor beta, 2 nM FR-Cy probe, 2 hr incubation; read-out: FOLR2-FP
# T1 sequence (P14207 17-255): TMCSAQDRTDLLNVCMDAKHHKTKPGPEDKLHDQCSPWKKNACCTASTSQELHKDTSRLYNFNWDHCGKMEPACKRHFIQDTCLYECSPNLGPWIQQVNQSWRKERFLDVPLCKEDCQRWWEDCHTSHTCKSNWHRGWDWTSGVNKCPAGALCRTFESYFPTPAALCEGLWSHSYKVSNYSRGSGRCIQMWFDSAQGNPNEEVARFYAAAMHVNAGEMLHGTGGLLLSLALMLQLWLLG
# Protocol: Folate receptor binding was measured in black 96-well plates using a fluorescence polarization assay. A fluorescent probe consisting of a folate analog linked to Cy5 (FR-Cy) was custom synthesized.
# Test compounds were resuspended in DMSO and 3-fold serial dilutions were made from 300-0.015 μM (100× final concentrations). Binding reactions were conducted in 200 μl final volume in 20 mM Hepes (pH 7.5) 250 mM NaCl 0.0150 Tween-20 1% DMSO with 2.5 nM folate receptor beta (Acro Biosystems) and 2 nM probe. Fluorescence polarization was measured using λex=620 nm, λem=688 nm on an Envision plate reader (Perkin Elmer) after 2 hr incubation time. Dose responses were conducted in duplicate and normalized to the response with DMSO (high) and 1 μM folic acid (low) on each plate. IC50 values were determined by fitting to 4-parameter curves in GraphPad Prism.
# [2] = target: TNFα and streptavidin immobilized FOL2R (Homo sapiens (Human), UniProt P01375+P14207); test: Ternary complex SPR assay; assay type: binding; details: 10 nM compound, max response normalized to expected response; for TC 150 nM- tagless TNF Normalized: 150 nM untagged TNF; for TC 300 nM- tagless TNF Normalized: 300 nM untagged TNF; for TC 60 nM taggless TNF normalized: 60 nM untagged TNF
# TNFα and streptavidin immobilized FOL2R, sequence (P14207 17-230): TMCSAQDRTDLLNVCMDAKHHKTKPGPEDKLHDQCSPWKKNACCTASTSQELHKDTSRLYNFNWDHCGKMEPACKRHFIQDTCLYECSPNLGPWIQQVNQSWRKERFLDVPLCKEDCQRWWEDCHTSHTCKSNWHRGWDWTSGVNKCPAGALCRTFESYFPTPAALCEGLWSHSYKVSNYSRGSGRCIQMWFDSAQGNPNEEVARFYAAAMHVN
# TNFα and streptavidin immobilized FOL2R, sequence (P01375 77-233): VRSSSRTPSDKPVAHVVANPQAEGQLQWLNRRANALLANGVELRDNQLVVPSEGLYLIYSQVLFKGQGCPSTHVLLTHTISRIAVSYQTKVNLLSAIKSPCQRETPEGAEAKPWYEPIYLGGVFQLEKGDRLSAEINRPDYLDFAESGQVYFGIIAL
# Protocol: Folate receptor-TNFα ternary complex SPR assays were conducted on a Biacore 8K instrument (Cytiva) using biotinylated folate receptor beta (Acro Biosystems). Folate receptor was immobilized at -1800 RU on a streptavidin chip (Cytiva) in 10 mM HEPES pH 7.5, 150 mM NaCl, 0.05% Tween 20. Untagged TNF was preincubated with 10 nM compound for 6 hr in 10 mM HEPES pH 7.5, 150 mM NaCl, 0.05 Tween 20, 2% DMSO at 25° C. Samples were then injected over the folate receptor surface at 30 μl/min with an association time of 110 s and a dissociation time of 600 s. Surfaces were regenerated with 4 M MgCl2 at 30 μl/mm for 30 s. The maximum measured response was normalized by comparison to the maximum expected response for each compound.
# folate receptor beta [3] = target: T1, folate receptor beta; test: Folate receptor SPR assay (biotinylated folate receptor beta on streptavidin chip); assay type: binding
# Protocol: Folate receptor SPR binding assays were conducted on a Biacore 8K instrument (Cytiva) using biotinylated folate receptor beta (Acro Biosystems). Briefly, folate receptor was immobilized at -550 RU on a streptavidin chip (Cytiva) in 10 mM HEPES pH 7.5, 150 mM NaCl, 0.05% Tween 20. Multi-cycle kinetic studies were conducted with 8 compound concentrations using 2-fold dilutions in 10 mM HEPES pH 7.5, 150 mM NaCl, 0.05% Tween 20, 2% DMSO at 25° C. A flow rate or 75 μl/mmn with an association time of 120 s and a dissociation time of 600 s were used. Surfaces were regenerated with 4 M MgCl2 at 30 μl/min for 30 s. Data were fit to a 1:1 model to determine the reported binding parameters.
# THP-1 cells = test: Compound mediated uptake of TNFα-pHrodo in THP-1 cells (flow cytometry); assay type: cell-based; details: THP-1 cells, 24 hrs
# Protocol: THP-1 cells, a monocytic leukemia cell line that endogenously express folate receptor beta, were used as a model system to measure example compound stimulated uptake of in-house produced TNFα conjugated to the pH sensitive fluorescent dye pHrodo green (ThermoFisher Scientific #P35369).
# THP-1 cells were maintained in RPMI (Gibco #61870143) with 10% v/v FBS (VWR #89510-188) with 2 mM L-alanyl-L-glutamine dipeptide, 100 units/ml penicillin and 100 μg/ml streptomycin (Gibco #15140148). Cells were pelleted, resuspended in folate-free RPMI (Gibco #27016021) and seeded at 50,000 cells per well of a 96 well plate. Example compound was added to each well as a log 2 dilution series ranging from 20 μM to 125 nM final concentration. Cells were incubated for 24 hrs and washed/resuspended in phosphate buffered saline (pH 7.4) with 1% w/v BSA. Uptake was measured using a Novocyte Advanteon Flow Cytometer (Agilent Technologies) with the […] and FITC detection configuration.
# TNFα, sequence (P01375 77-233): as above
SMILES,IC50 (TNFα) [nM],IC50 (folate receptor beta [1]) [nM],TC 300 nM- tagless TNF Normalized [2] [%],further results
"C[C@@H]1CN(c2ncc(-c3ccc4c(c3)N(Cc3ccccc3OC(F)F)C(C)(C)C4=O)cn2)CCN1C(=O)COCCOCCOCCOCCOCCOCCn1cc(CC[C@H](NC(=O)c2ccc(NCc3cnc4nc(N)nc(O)c4n3)cc2)C(=O)O)nn1 [Compound I-88, (S)-2-(4-(((2-amino-4-hydroxypteridin-6-yl)methyl)amino)benzamido)-4-(1-(20-((R)-4-(5-(1-(2-(difluoromethoxy)benzyl)-2,2-dimethyl-3-oxoindolin-6-yl)pyrimidin-2-yl)-2-methylpiperazin-1-yl)-20-oxo-3,6,9,12,15,18-hexaoxaicosyl)-1H-1,2,3-triazol-4-yl)butanoic acid]",60,6.9,,
Cc1nc2cc(F)c(-c3cnc(N4CCN(C(=O)COCCn5cc(COCCOCCOCCN6CCN(C(=O)[C@H](CCC(=O)O)NC(=O)c7ccc(NCc8cnc9nc(N)nc(O)c9n8)cc7)CC6)nn5)CC4)nc3)nc2c(N[C@H](C)c2cc(C#N)ccc2F)c1Cl [Compound I-97],,17,21.1,"TC 150 nM- tagless TNF Normalized [2]: 18.4%; Rmax (folate receptor beta [3]; biotinylated folate receptor beta on streptavidin chip): 17.1 RU; kd (folate receptor beta [3]; multi-cycle kinetics, 25° C., 1:1 model): 0.000798 s⁻¹; Kd (folate receptor beta [3]; multi-cycle kinetics, 25° C., 1:1 model, read-out: FOLR2Biotin - SPR Kd): 0.0914 nM; kon (folate receptor beta [3]; pH 7.5, multi-cycle kinetics, 25° C., 1:1 model, read-out: ka): 8.74e+06 M⁻¹ s⁻¹"
"Cc1nc2cc(F)c(-c3cnc(N4CCN(C(=O)COCCOCCOCCOCCN5CCN(C(=O)CC[C@H](NC(=O)c6ccc(N(C)Cc7cnc8nc(N)[nH]c(=O)c8n7)cc6)C(=O)O)CC5)CC4)nc3)nc2c(N[C@H](C)c2cc(C#N)ccc2F)c1Cl [Compound I-78, (S)-2-(4-(((2-amino-4-oxo-3,4-dihydropteridin-6-yl)methyl)(methyl)amino)benzamido)-5-(4-(14-(4-(5-(7-chloro-8-(((R)-1-(5-cyano-2-fluorophenyl)ethyl)amino)-3-fluoro-6-methyl-1,5-naphthyridin-2-yl)pyrimidin-2-yl)piperazin-1-yl)-14-oxo-3,6,9,12-tetraoxatetradecyl)piperazin-1-yl)-5-oxopentanoic acid]",13,9.2,,
"CN(Cc1cnc2nc(N)[nH]c(=O)c2n1)c1ccc(C(=O)N[C@@H](CCc2cn(CCOCCOCCOCCOCCOCCOCC(=O)N3CCN(c4ncc(-c5ccc6nc(COc7cccc(N8CCCC8=O)c7)n(Cc7ccccc7OC(F)F)c6c5)cn4)CC3)nn2)C(=O)O)cc1 [Compound I-83, (S)-2-(4-(((2-amino-4-oxo-3,4-dihydropteridin-6-yl)methyl)(methyl)amino)benzamido)-4-(1-(20-(4-(5-(1-(2-(difluoromethoxy)benzyl)-2-((3-(2-oxopyrrolidin-1-yl)phenoxy)methyl)-1H-benzo[d]imidazol-6-yl)pyrimidin-2-yl)piperazin-1-yl)-20-oxo-3,6,9,12,15,18-hexaoxaicosyl)-1H-1,2,3-triazol-4-yl)butanoic acid]",28,5.3,17.5,TC 60 nM taggless TNF normalized [2]: 14.3%
"Cc1nc2cc(F)c(-c3cnc(N4CCN(C(=O)COCCn5cc(COCCOCCOCCOCCNC(=O)CC[C@H](NC(=O)c6ccc(NCc7cnc8nc(N)nc(O)c8n7)cc6)C(=O)O)nn5)CC4)nc3)nc2c(N[C@H](C)c2cc(C#N)ccc2F)c1Cl [Compound I-45, (S)-18-(4-(((2-amino-4-hydroxypteridin-6-yl)methyl)amino)benzamido)-1-(1-(2-(2-(4-(5-(7-chloro-8-(((R)-1-(5-cyano-2-fluorophenyl)ethyl)amino)-3-fluoro-6-methyl-1,5-naphthyridin-2-yl)pyrimidin-2-yl)piperazin-1-yl)-2-oxoethoxy)ethyl)-1H-1,2,3-triazol-4-yl)-15-oxo-2,5,8,11-tetraoxa-14-azanonadecan-19-oic acid]",25,4.2,17.6,TC 150 nM- tagless TNF Normalized [2]: 16.3%
"Cc1nc2cc(F)c(-c3cnc(N4CCN(C(=O)COCCOCCOCCOCCOCCOCCn5cc(CC[C@H](NC(=O)c6ccc(SCc7ccc8nc(N)nc(O)c8c7)cc6)C(=O)O)nn5)CC4)nc3)nc2c(N[C@H](C)c2cc(C#N)ccc2F)c1Cl [Compound I-79, (S)-2-(4-(((2-amino-4-hydroxyquinazolin-6-yl)methyl)thio)benzamido)-4-(1-(20-(4-(5-(7-chloro-8-(((R)-1-(5-cyano-2-fluorophenyl)ethyl)amino)-3-fluoro-6-methyl-1,5-naphthyridin-2-yl)pyrimidin-2-yl)piperazin-1-yl)-20-oxo-3,6,9,12,15,18-hexaoxaicosyl)-1H-1,2,3-triazol-4-yl)butanoic acid]",17,3.2,,
"Cc1nc2cc(F)c(-c3cnc(N4CC5(CN(C(=O)COCCOCCOCCOCCOCCOCCn6cc(CC[C@H](NC(=O)c7ccc(NCc8cnc9nc(N)nc(O)c9n8)cc7)C(=O)O)nn6)C5)C4)nc3)nc2c(N[C@H](C)c2cc(C#N)ccc2F)c1Cl [Compound I-81, (S)-2-(4-(((2-amino-4-hydroxypteridin-6-yl)methyl)amino)benzamido)-4-(1-(20-(6-(5-(7-chloro-8-(((R)-1-(5-cyano-2-fluorophenyl)ethyl)amino)-3-fluoro-6-methyl-1,5-naphthyridin-2-yl)pyrimidin-2-yl)-2,6-diazaspiro[3.3]heptan-2-yl)-20-oxo-3,6,9,12,15,18-hexaoxaicosyl)-1H-1,2,3-triazol-4-yl)butanoic acid]",39,7.1,12.1,TC 60 nM taggless TNF normalized [2]: 4%
Cc1nc2cc(F)c(-c3cnc(OCCCCCn4cc(COCCOCCOCCOCCNC(=O)[C@H](CCC(=O)O)NC(=O)c5ccc(NCc6cnc7nc(N)nc(O)c7n6)cc5)nn4)nc3)nc2c(N[C@H](C)c2cc(C#N)ccc2F)c1Cl [Compound 1-21],,,,uptake of labelled TNFα (median fluorescence intensity of pHrodo dye) (THP-1 cells): stimulate uptake of TNFα

# Reference: patent US20250127913A1, “BIFUNCTIONAL FOLATE RECEPTOR BINDING COMPOUNDS” (LYCIA THERAPEUTICS, INC., priority 2021, published 2025)
